Like-named read-outs stand apart in the source and are kept apart here.
How the values were obtained:
[1] = tested on: HeLa cells; assay: MTT cytotoxicity assay, HeLa; assay type: cell-based; conditions: Homo sapiens, 24 h, read-out: IC50, Cervix, HeLa
Description: (§1) In the first step of the study, we analyzed the cytotoxicity of novel soloxolone derivatives 1–12 in a panel of tumor cells, including human cervical carcinoma HeLa, human duodenal carcinoma HuTu-80 and murine melanoma B16 cells, as well as human non-transformed hFF3 foreskin fibroblasts. The cells were treated with derivatives for 24 h and cell viability was evaluated by 3-(4,5-dimethylthiazol-2-yl)-2,5-diphenyltetrazolium bromide (MTT) assay. SM was used as the reference compound.
(§2) The cells in the exponential growth phase were seeded in quadruplicate in 96-well plates at a density of 1 × 10^4 cells/well for HeLa, U87, U118, KELLY and Neuro2a cells; 1.5 × 10^4 cells/well for HuTu-80 cells; 2 × 10^4 cells/well for B16 cells; and 7 × 10^3 cells/well for hFF3 fibroblasts. Cells were incubated under standard conditions overnight followed by their treatment with the investigated compounds (1–20 µM) for 24 h. Then, 10 µL of MTT solution was added to the cells to a final concentration of 0.5 mg/mL and plates were placed under standard conditions for 3 h followed by an aspiration of MTT-containing medium and a dissolution of formazan crystals with 100 µL of DMSO. The absorbance of each well was read at test and reference wavelengths of 570 and 620 nm, respectively, on a Multiscan RC plate reader (Thermo LabSystems, Helsinki, Finland).

[2] = tested on: HuTu-80 cells; assay: MTT cytotoxicity assay, HuTu-80; assay type: cell-based; conditions: Homo sapiens, HuTu80, 24 h, read-out: IC50, Duodenum, HuTu-80
Description: as §1, §2

[3] = tested on: B16 cells; assay: MTT cytotoxicity assay, B16; assay type: cell-based, murine; conditions: Mus musculus, 24 h, read-out: IC50, Melanoma, B16
Description: as §1, §2

[4] = tested on: hFF3 foreskin fibroblasts; assay: MTT cytotoxicity assay, hFF3 fibroblasts; assay type: cell-based, human
Description: as §1, §2

[5] = tested on: U87 cells; assay: MTT cytotoxicity assay, U87; assay type: cell-based; conditions: Homo sapiens, U-87 MG, 24 h, read-out: IC50, Glioblastoma, U87
Description: (§3) To evaluate the antitumor activity of the synthesized soloxolone amides in brain tumor cells, the cytotoxicity of compounds 4–12, predicted as BBB-permeable (Figure 3), was further analyzed in human glioblastoma U87 and U118 cells, as well as human neuroblastoma KELLY and murine neuroblastoma Neuro2a cells.
as §2

[6] = tested on: U118 cells; assay: MTT cytotoxicity assay, U118; assay type: cell-based; conditions: Homo sapiens, 24 h, read-out: IC50, Glioblastoma, U118
Description: as §3, §2

[7] = tested on: KELLY cells; assay: MTT cytotoxicity assay, KELLY; assay type: cell-based; conditions: Homo sapiens, 24 h, read-out: IC50, Neuroblastoma, KELLY
Description: as §3, §2

[8] = tested on: Neuro2a cells; assay: MTT cytotoxicity assay, Neuro2a; assay type: cell-based, murine; conditions: Mus musculus, N2a, 24 h, read-out: IC50, Neuroblastoma, Neuro2a
Description: as §3, §2

[9] = tested on: panel of tumor cells; assay: MTT cytotoxicity, values averaged over the cell panel; assay type: cell-based
Description: as §1, §2

[10] = tested on: brain tumor cells; assay: MTT cytotoxicity, values summarised over brain tumor cells; assay type: cell-based; conditions: U87, U118, KELLY, Neuro2a; MTT 24 h; read-out: IC50 (median), brain tumor cells
Description: as §3, §2

[11] = average over Table 1 cell lines (worded 'in a panel of tumor cells'), MTT 24 h, read-out: average IC50
[12] = aryl-containing amides versus SM, tumor cells of Table 1, MTT 24 h, read-out: average IC50 against tumor cells

Row | melting point | SMILES | IC50 [1] [nM] | IC50 [2] [nM] | IC50 [3] [nM] | IC50 ([4]; 24 h) [nM] | IC50 ([4]; Homo sapiens, HFF-3, 24 h) [nM] | IC50 [5] [nM] | IC50 [6] [nM] | IC50 [7] [nM] | IC50 [8] [nM] | IC50 [9, 11] [nM] | IC50 [9, 12] [nM] | IC50 ([9]; conclusions, soloxolone amides versus SM, read-out: average IC50 in a panel of tumor cell lines) [nM] | IC50 [10] [nM]
1 | 115.9 °C (dec.) | COCCNC(=O)[C@@]1(C)CC[C@]2(C)CC[C@]3(C)[C@H](C(=O)C=C4[C@@]5(C)C=C(C#N)C(=O)C(C)(C)C5CC[C@]43C)[C@@H]2C1 (stereo partly shown) [compound 5, N-(2′-Methoxyethyl)-2-cyano-3,12-dioxo-18βH-olean-9(11),1(2)-dien-30-amide] | 1500 ± 200 | 2300 ± 200 | 1600 ± 100 | 12900 ± 800 | 12800 | 5500 ± 1100 | 7000 ± 700 | 1600 ± 100 | 2700 ± 300 |  |  |  | 
2 | 250 °C | CC1(C)C(=O)C(C#N)=C[C@]2(C)C3=CC(=O)[C@@H]4[C@@H]5C[C@@](C)(C(=O)Nc6cccnc6)CC[C@]5(C)CC[C@@]4(C)[C@]3(C)CCC12 (stereo partly shown) [compound 10, N-(Pyridin-3-yl)-2-Cyano-3,12-dioxo-18βH-olean-9(11),1(2)-dien-30-amide] | 1800 ± 100 | 1500 ± 200 | 1700 ± 100 |  | 1600 ± 100 | 2500 ± 200 | 2100 ± 200 | 1500 ± 100 | 1400 ± 100 |  | 1500 to 1800 |  | 
3 | 115.7 °C (dec.) | CC1(C)C(=O)C(C#N)=C[C@]2(C)C3=CC(=O)[C@@H]4[C@@H]5C[C@@](C)(C(=O)NCCCCCO)CC[C@]5(C)CC[C@@]4(C)[C@]3(C)CCC12 (stereo partly shown) [compound 4, N-(5′-Hydroxypentyl)-2-cyano-3,12-dioxo-18βH-olean-9(11),1(2)-dien-30-amide] | 2300 ± 400 | 1300 ± 100 | 1500 ± 100 |  | 3600 ± 300 | 2000 ± 100 | 3100 ± 500 | 1500 ± 100 | 1900 ± 200 | 2200 |  |  | 
4 | 139 °C (dec.) | CC(C)(C)c1cc(CCCNC(=O)[C@@]2(C)CC[C@]3(C)CC[C@]4(C)[C@H](C(=O)C=C5[C@@]6(C)C=C(C#N)C(=O)C(C)(C)C6CC[C@]54C)[C@@H]3C2)cc(C(C)(C)C)c1O (stereo partly shown) [compound 11, N-(3′-(3′’,5′’-di-tert-butyl-4′’-hydroxyphenyl)propyl)-2-Cyano-3,12-dioxo-18βH-olean-9(11),1(2)-dien-30-amide] | 2500 ± 100 | 1500 ± 100 | 1400 ± 100 |  | 1300 ± 200 | 1500 ± 100 | 1900 ± 100 | 1800 ± 200 | 1400 ± 100 |  | 1500 to 1800 |  | 
5 | 150.8 °C (dec.) | CC1(C)C(=O)C(C#N)=C[C@]2(C)C3=CC(=O)[C@@H]4[C@@H]5C[C@@](C)(C(=O)NCCCO)CC[C@]5(C)CC[C@@]4(C)[C@]3(C)CCC12 (stereo partly shown) [compound 3, N-(3′-Hydroxypropyl)-2-cyano-3,12-dioxo-18βH-olean-9(11),1(2)-dien-30-amide] | 3500 ± 200 | 1700 ± 200 | 1400 ± 100 |  | 6800 ± 1300 |  |  |  |  | 3400 |  |  | 
6 | 283 °C (dec.) | CC1(C)C(=O)C(C#N)=C[C@]2(C)C3=CC(=O)[C@@H]4[C@@H]5C[C@@](C)(C(=O)Nc6ccc(Br)cc6)CC[C@]5(C)CC[C@@]4(C)[C@]3(C)CCC12 (stereo partly shown) [compound 8, N-(4′-Bromophenyl)-2-Cyano-3,12-dioxo-18βH-olean-9(11),1(2)-dien-30-amide] | 1500 ± 100 | 1400 ± 100 | 1900 ± 100 |  | 1800 ± 100 | 1700 ± 100 | 2000 ± 100 | 1400 ± 100 | 1600 ± 100 |  | 1500 to 1800 |  | 

The remaining lines, values behind:

Row | SMILES | melting point | IC50 [1] [nM] | IC50 [2] [nM] | IC50 [3] [nM] | IC50 ([4]; 24 h) [nM] | IC50 ([4]; Homo sapiens, HFF-3, 24 h) [nM] | IC50 [5] [nM] | IC50 [6] [nM] | IC50 [7] [nM] | IC50 [8] [nM] | IC50 [9, 11] [nM] | IC50 [9, 12] [nM] | IC50 ([9]; conclusions, soloxolone amides versus SM, read-out: average IC50 in a panel of tumor cell lines) [nM] | IC50 [10] [nM]
7 | CN(C)CCNC(=O)[C@@]1(C)CC[C@]2(C)CC[C@]3(C)[C@H](C(=O)C=C4[C@@]5(C)C=C(C#N)C(=O)C(C)(C)C5CC[C@]43C)[C@@H]2C1 (stereo partly shown) [compound 6, N-(2′-(Dimethylamino)ethyl)-2-Cyano-3,12-dioxo-18βH-olean-9(11),1(2)-dien-30-amide] |  | 2600 ± 500 | 2100 ± 500 | 3300 ± 500 |  | 4100 ± 300 | 4600 ± 400 | 3800 ± 500 | 1600 ± 100 | 2800 ± 400 | 3000 |  |  | 
8 | CC1(C)C(=O)C(C#N)=C[C@]2(C)C3=CC(=O)[C@@H]4[C@@H]5C[C@@](C)(C(=O)O)CC[C@]5(C)CC[C@@]4(C)[C@]3(C)CCC12 (stereo partly shown) [compound 1, 2-Cyano-3,12-dioxo-18βH-olean-9(11),1(2)-dien-30-oic acid] |  | 9900 ± 700 | 2500 ± 300 | 4200 ± 300 |  | 16000 ± 1900 |  |  |  |  | 8200 |  |  | 
9 | CN(C)CCCNC(=O)[C@@]1(C)CC[C@]2(C)CC[C@]3(C)[C@H](C(=O)C=C4[C@@]5(C)C=C(C#N)C(=O)C(C)(C)C5CC[C@]43C)[C@@H]2C1 (stereo partly shown) [compound 7, N-(3′-(Dimethylamino)propyl)-2-cyano-3,12-dioxo-18βH-olean-9(11),1(2)-dien-30-amide] |  | 4900 ± 800 | 2000 ± 700 | 3300 ± 800 |  | 7700 ± 1100 | 5300 ± 700 | 5200 ± 1300 | 1800 ± 300 | 3700 ± 600 | 4500 |  |  | 
10 | COC(=O)[C@@]1(C)CC[C@]2(C)CC[C@]3(C)[C@H](C(=O)C=C4[C@@]5(C)C=C(C#N)C(=O)C(C)(C)C5CC[C@]43C)[C@@H]2C1 (stereo partly shown) [SM, soloxolone methyl, reference compound] |  | 1300 ± 100 | 1500 ± 100 | 1600 ± 100 |  | 4000 ± 400 | 1800 ± 100 | 1900 ± 100 | 1600 ± 100 | 1400 ± 100 | 2100 | 1500 | 1600 | 1400
11 | CC1(C)C(=O)C(C#N)=C[C@]2(C)C3=CC(=O)[C@@H]4[C@@H]5C[C@@](C)(C(=O)NCCO)CC[C@]5(C)CC[C@@]4(C)[C@]3(C)CCC12 (stereo partly shown) [compound 2, N-(2′-Hydroxyethyl)-2-cyano-3,12-dioxo-18βH-olean-9(11),1(2)-dien-30-amide] | 152.7 °C (dec.) | 1500 ± 100 | 1400 ± 100 | 3300 ± 200 |  | 1200 ± 100 |  |  |  |  | 1900 |  |  | 
12 | Cc1ccc(NC(=O)[C@@]2(C)CC[C@]3(C)CC[C@]4(C)[C@H](C(=O)C=C5[C@@]6(C)C=C(C#N)C(=O)C(C)(C)C6CC[C@]54C)[C@@H]3C2)cc1 (stereo partly shown) [compound 9, N-p-Tolyl-2-cyano-3,12-dioxo-18βH-olean-9(11),1(2)-dien-30-amide] |  | 1600 ± 100 | 1500 ± 100 | 2100 ± 300 |  | 3600 ± 300 | 2000 ± 200 | 1900 ± 200 | 1400 ± 100 | 1600 ± 100 |  | 1500 to 1800 |  | 
